Read-outs that look alike come from different tables or passages of the source.
Legend:
M. fortuitum group = test: MIC (CLSI broth dilution), RGM isolates; format: cell-based; settings: Mycolicibacterium fortuitum
[1] = tested on: rapid-growing mycobacteria (RGM) isolates; test: MIC (CLSI broth dilution), all RGM isolates; format: cell-based, nontuberculous mycobacteria
M. chelonae = test: MIC (CLSI broth dilution), RGM isolates; format: cell-based; settings: Mycobacteroides chelonae
M. mucogenium group = test: MIC (CLSI broth dilution), RGM isolates; format: cell-based

CC[C@H]1OC(=O)[C@H](C)[C@@H](O[C@H]2C[C@@](C)(OC)[C@@H](O)[C@H](C)O2)[C@H](C)[C@@H](O[C@@H]2O[C@H](C)C[C@H](N(C)C)[C@H]2O)[C@](C)(OC)C[C@@H](C)C(=O)[C@H](C)[C@@H](O)[C@]1(C)O [clarithromycin]
0.5 µg/mL: MIC (M. fortuitum group; 336 h, isolate 31, M. senegalense, extended reading, up to/including 14 days, read-out: MIC, CLA Extended) | MIC (M. fortuitum group; 336 h, isolate 32, M. senegalense, extended reading, up to/including 14 days, read-out: MIC, CLA Extended) | MIC (M. fortuitum group; isolate 24, M. fortuitum, initial reading, generally 3-4 days, read-out: MIC, CLA Initial) | MIC (M. fortuitum group; isolate 26, M. porcinum, initial reading, generally 3-4 days, read-out: MIC, CLA Initial) | MIC (M. chelonae; 336 h, isolate 19, M. chelonae, extended reading, up to/including 14 days, read-out: MIC, CLA Extended) | MIC (M. chelonae; 336 h, isolate 20, M. chelonae, extended reading, up to/including 14 days, read-out: MIC, CLA Extended) | MIC (M. chelonae; isolate 20, M. chelonae, initial reading, generally 3-4 days, read-out: MIC, CLA Initial) | MIC (M. chelonae; isolate 21, M. chelonae, initial reading, generally 3-4 days, read-out: MIC, CLA Initial) | MIC (M. mucogenium group; 336 h, isolate 47, M. phocaicum, extended reading, up to/including 14 days, read-out: MIC, CLA Extended) | MIC (M. mucogenium group; 336 h, isolate 48, M. phocaicum, extended reading, up to/including 14 days, read-out: MIC, CLA Extended) | MIC (M. mucogenium group; isolate 41, M. mucogenicum, initial reading, generally 3-4 days, read-out: MIC, CLA Initial)
8 µg/mL: MIC (M. fortuitum group; isolate 28, M. porcinum/M. boenickei, initial reading, generally 3-4 days, read-out: MIC, CLA Initial)
≤ 0.06 µg/mL: MIC (M. fortuitum group; isolate 34, M. senegalense, initial reading, generally 3-4 days, read-out: MIC, CLA Initial) | MIC (M. mucogenium group; isolate 39, M. mucogenicum, initial reading, generally 3-4 days, read-out: MIC, CLA Initial) | MIC (M. mucogenium group; isolate 42, M. mucogenicum, initial reading, generally 3-4 days, read-out: MIC, CLA Initial) | MIC (M. mucogenium group; isolate 46, M. phocaicum, initial reading, generally 3-4 days, read-out: MIC, CLA Initial)
> 32 µg/mL: MIC (M. fortuitum group; 336 h, isolate 30, M. porcinum/M. boenickei, extended reading, up to/including 14 days, read-out: MIC, CLA Extended) | MIC90 ([1]; 336 h, all RGM isolates, extended reading, up to/including 14 days, read-out: MIC90, CLA Extended)
2 µg/mL: MIC (M. fortuitum group; isolate 25, M. fortuitum, initial reading, generally 3-4 days, read-out: MIC, CLA Initial) | MIC (M. fortuitum group; isolate 27, M. porcinum, initial reading, generally 3-4 days, read-out: MIC, CLA Initial) | MIC50 ([1]; 336 h, all RGM isolates, extended reading, up to/including 14 days, read-out: MIC50, CLA Extended) | MIC90 ([1]; all 50 RGM isolates, initial reading, generally 3-4 days, read-out: MIC90, CLA Initial) | MIC (M. chelonae; 336 h, isolate 18, M. chelonae, extended reading, up to/including 14 days, read-out: MIC, CLA Extended) | MIC (M. chelonae; 336 h, isolate 21, M. chelonae, extended reading, up to/including 14 days, read-out: MIC, CLA Extended) | MIC (M. chelonae; 336 h, isolate 22, M. chelonae, extended reading, up to/including 14 days, read-out: MIC, CLA Extended)
1 µg/mL: MIC (M. fortuitum group; 336 h, isolate 33, M. senegalense, extended reading, up to/including 14 days, read-out: MIC, CLA Extended) | MIC (M. fortuitum group; 336 h, isolate 34, M. senegalense, extended reading, up to/including 14 days, read-out: MIC, CLA Extended) | MIC (M. fortuitum group; isolate 23, M. fortuitum, initial reading, generally 3-4 days, read-out: MIC, CLA Initial) | MIC (M. fortuitum group; isolate 30, M. porcinum/M. boenickei, initial reading, generally 3-4 days, read-out: MIC, CLA Initial) | MIC (M. chelonae; isolate 22, M. chelonae, initial reading, generally 3-4 days, read-out: MIC, CLA Initial) | MIC (M. mucogenium group; 336 h, isolate 40, M. mucogenicum, extended reading, up to/including 14 days, read-out: MIC, CLA Extended) | MIC (M. mucogenium group; 336 h, isolate 41, M. mucogenicum, extended reading, up to/including 14 days, read-out: MIC, CLA Extended) | MIC (M. mucogenium group; 336 h, isolate 43, M. phocaicum, extended reading, up to/including 14 days, read-out: MIC, CLA Extended) | MIC (M. mucogenium group; 336 h, isolate 44, M. phocaicum, extended reading, up to/including 14 days, read-out: MIC, CLA Extended) | MIC (M. mucogenium group; 336 h, isolate 45, M. phocaicum, extended reading, up to/including 14 days, read-out: MIC, CLA Extended)
4 µg/mL: MIC (M. fortuitum group; isolate 29, M. porcinum/M. boenickei, initial reading, generally 3-4 days, read-out: MIC, CLA Initial)
0.25 µg/mL: MIC50 ([1]; all 50 RGM isolates, initial reading, generally 3-4 days, read-out: MIC50, CLA Initial) | MIC (M. chelonae; isolate 18, M. chelonae, initial reading, generally 3-4 days, read-out: MIC, CLA Initial) | MIC (M. chelonae; isolate 19, M. chelonae, initial reading, generally 3-4 days, read-out: MIC, CLA Initial) | MIC (M. mucogenium group; isolate 40, M. mucogenicum, initial reading, generally 3-4 days, read-out: MIC, CLA Initial) | MIC (M. mucogenium group; isolate 43, M. phocaicum, initial reading, generally 3-4 days, read-out: MIC, CLA Initial) | MIC (M. mucogenium group; isolate 44, M. phocaicum, initial reading, generally 3-4 days, read-out: MIC, CLA Initial) | MIC (M. mucogenium group; isolate 45, M. phocaicum, initial reading, generally 3-4 days, read-out: MIC, CLA Initial) | MIC (M. mucogenium group; isolate 47, M. phocaicum, initial reading, generally 3-4 days, read-out: MIC, CLA Initial)
0.12 µg/mL: MIC (M. fortuitum group; isolate 31, M. senegalense, initial reading, generally 3-4 days, read-out: MIC, CLA Initial) | MIC (M. fortuitum group; isolate 32, M. senegalense, initial reading, generally 3-4 days, read-out: MIC, CLA Initial) | MIC (M. fortuitum group; isolate 33, M. senegalense, initial reading, generally 3-4 days, read-out: MIC, CLA Initial) | MIC (M. mucogenium group; 336 h, isolate 39, M. mucogenicum, extended reading, up to/including 14 days, read-out: MIC, CLA Extended) | MIC (M. mucogenium group; 336 h, isolate 42, M. mucogenicum, extended reading, up to/including 14 days, read-out: MIC, CLA Extended) | MIC (M. mucogenium group; 336 h, isolate 46, M. phocaicum, extended reading, up to/including 14 days, read-out: MIC, CLA Extended) | MIC (M. mucogenium group; isolate 48, M. phocaicum, initial reading, generally 3-4 days, read-out: MIC, CLA Initial)

Source: patent publication US20250332178A1, “METHODS OF TREATING MYCOBACTERIAL INFECTIONS USING TETRACYCLINE COMPOUNDS” (priority 2018, published 2025)
